Laboratory results taken from publication PMC11195807, “Development of a multi-targeted chemotherapeutic approach based on G-quadruplex stabilisation and carbonic anhydrase inhibition” (Journal of Enzyme Inhibition and Medicinal Chemistry, 2024).

Key:
GQ structures [1] = experiment: BG4 immunofluorescence of GQ foci, HeLa cells in normoxia; assay type: cell-based; conditions: 24 h, 35.0 µM S-4,0, 40.0 µM C-4,2, 37.5 µM C-5,2, 2 µM RHPS4, over DMSO
From the text: After measuring the viability of HeLa cells upon treatment with the newly synthesised MTDLs mentioned above, we probed the capability of the three most cytotoxic ones (S-4,0, C-4,2, and C-5,2) to affect the formation of GQ structures by immunofluorescence (IF) microscopy, using the BG4 antibody that selectively recognises the GQ structures. As it can be noticed in Figure 6, the fluorescence intensity of the total number of GQ foci increased by around 30% after treatment with both the coumarin derivative C-4,2 and the reference GQ binder RHPS4, whereas it was not affected by S-4,0 and C-5,2. […] On the contrary, the levels of GQ structures were influenced neither by the treatment with the sulphonamide S-4,0 nor by the coumarin C-5,2, despite their ability to thermally stabilise some GQ-forming sequences in vitro.
Figure 6. (A) Representative fields showing G4 foci formation detected by immunofluorescence in HeLa cells treated for 24 h with 35.0 µM S-4,0, 40.0 µM C-4,2, and 37.5 µM C-5,2 or an equivalent amount of vehicle (0.1% DMSO). As a positive control, cells were treated with 2 µM RHPS4 (a well-established GQ ligand)[68] for 24 h. Scale bar: 10 µm. Upper panels: the merged channels of BG4-stained GQ structures (magenta) and Hoechst-counterstained nuclei (grey) are reported. Lower panels: enlargements from the pictures in the upper panels. (B) Quantitative analysis of the fluorescence intensity of the total number of GQ foci. An average of 50 cells were screened for each condition and the results are expressed as a fold change of fluorescence intensity (anti-GQ signal) over the negative control (DMSO). Histograms show the mean ± SD of three independent experiments. The statistical significance was calculated using a one-way ANOVA test on GraphPad Prism 8.0.2 (ns: not significant, **: p < 0.01).
For the IF experiments in the presence of normal oxygen levels, HeLa cells were seeded on sterile coverslips, in a 24-well plate, at a density of 90,000 cells per well, and incubated overnight. Then, cells were treated with a sublethal concentration of each investigated MTDL or an equivalent amount of vehicle (0.1% DMSO), for 24 h. As positive control, cells were exposed for 24 h to 2 µM RHPS4. As regards the IF experiments under hypoxic conditions, HeLa were seeded on sterile coverslips, in a 24-well plate, at a density of 50,000 cells per well, and incubated overnight. […] From there, the cellular and nuclear foci were segmented, and their number or fluorescence intensity was quantified by using the Image Analysis package of ZEISS ZEN 3.1 software.

GQ structures [2] = experiment: BG4 immunofluorescence of GQ foci, hypoxic HeLa cells; assay type: cell-based; conditions: hypoxic HeLa cells (50 μM CoCl2 60 h), 1 µM C-4,2 for 12 h, vs DMSO-treated hypoxic cells
Procedure: Finally, we investigated C-4,2 capability to impact the formation of GQ structures even in hypoxic HeLa cells.
Figure 7. (A) Representative fields showing G4 foci formation detected by immunofluorescence in HeLa cells pre-treated with 50 μM cobalt (II) chloride hexahydrate for 60 h to induce hypoxia and then exposed to 1 µM C-4,2 or vehicle (0.1% DMSO) for the following 12 h, still in the presence of CoCl2. DMSO-treated normoxic HeLa cells are also shown. Scale bar: 10 µm. Upper panels: the merged channels of BG4-stained GQ structures (magenta) and Hoechst-counterstained nuclei (grey) are reported. Lower panels: enlargements from the pictures in the upper panels. (B) Quantification of the cellular BG4 foci in DMSO-treated normoxic HeLa cells, DMSO-treated hypoxic HeLa cells, and C-4,2-treated hypoxic HeLa cells. An average of 50 cells were screened for each condition. […] The statistical significance was calculated using a one-way ANOVA test on GraphPad Prism 8.0.2 (**: p < 0.01, ****: p < 0.0001).
For the IF experiments in the presence of normal oxygen levels, HeLa cells were seeded on sterile coverslips, in a 24-well plate, at a density of 90,000 cells per well, and incubated overnight. […] From there, the cellular and nuclear foci were segmented, and their number or fluorescence intensity was quantified by using the Image Analysis package of ZEISS ZEN 3.1 software.

Compound | increase of fluorescence intensity of the total number of GQ foci (GQ structures [1]) | number of detectable GQs (BG4 foci) (GQ structures [2])
COc1ccc2cc3[n+](cc2c1OCCCCn1cc(-c2ccc(S(N)(=O)=O)cc2)nn1)CCc1cc2c(cc1-3)OCO2 [Compound 30, 10-Methoxy-9–(4–(4-(4-sulfamoylphenyl)-1H-1,2,3-triazol-1-yl)butoxy)-5,6-dihydro-[1,3]dioxolo[4,5-g]isoquinolino[3,2-a]isoquinolin-7-ium hexafluorophosphate] | not affected | –
COc1ccc2cc3[n+](cc2c1OCCCCn1cc(COc2ccc4ccc(=O)oc4c2)nn1)CCc1cc2c(cc1-3)OCO2 [Compound 37, 10-Methoxy-9–(4-(4-(((2-oxo-2H-chromen-7-yl)oxy)methyl)-1H-1,2,3-triazol-1-yl)butoxy)-5,6-dihydro-[1,3]dioxolo[4,5-g]isoquinolino[3,2-a]isoquinolin-7-ium hexafluorophosphate] | around 30% | remarkable increase
COc1ccc2cc3[n+](cc2c1OCCCCCn1cc(COc2ccc4ccc(=O)oc4c2)nn1)CCc1cc2c(cc1-3)OCO2 [Compound 39, 10-Methoxy-9-((5–(4-(((2-oxo-2H-chromen-7-yl)oxy)methyl)-1H-1,2,3-triazol-1-yl)pentyl)oxy)-5,6-dihydro-[1,3]dioxolo[4,5-g]isoquinolino[3,2-a]isoquinolin-7-ium hexafluorophosphate] | not affected | –
